Test results from patent US10913750B2, “Tubulin-binding compounds, compositions and uses related thereto” (The Regents of the University of California, priority 2015, dated 2021).

Key:
β-tubulin = assay: Crystal structure of T2R-TTL tubulin complex soaked with ligand; assay type: binding, bovine; conditions: T2R-TTL crystal soaked 24 hours with 1 mM compound
Experimental: The crystal structure of tubulin bound to two ligands described here was obtained using an established system for tubulin crystal growth. […] Methods in Cell Biology 2010, 95:373-390.) Briefly, bovine αβ-tubulin, human RB3 or rat STMN4 stathmin-like domain, and chicken tubulin tyrosine ligase (TTL) reconstitute to form a stathmin-bound αβ-tubulin (T2R) T2R-TTL complex, which readily crystallizes. […]
The final resolution cutoffs described here were determined optimally from a subset of diffraction images that took into consideration the signal-to-noise ratio for reflection intensities and the random half-data set correlation coefficient, CC1/2 (Karplus P. A., Diederichs K. Linking crystallographic model and data quality. Science 2012, (New York, N.Y.) 336:1030-1033.) […]

HeLa cells [1] = assay: CellTiter-Glo cell viability, HeLa cells; assay type: cell-based; conditions: Homo sapiens; HeLa cells, 72 hours, CellTiter-Glo
Experimental: (§1) The cell viability IC50 of each compound was determined using Promega CellTiter-Glo Luminescent Cell Viability Assay kit by measuring the total ATP levels to quantify the number of metabolically active cells upon drug treatment as described in Crouch et al., J Immunol Methods 1993, 160, (1), 81-8. Briefly, the compounds were suspended in DMSO at 10 mM and diluted in 384 plates (20 μl/well in DMSO) in triplicate by a 14-point titration (12 nM to 100 μM). 50 μl of HeLa cells or patient derived glioblastoma cells (HK-309) (2000 cells/well) were then treated with the prepared dilutions of the drugs (0.5 μl) and incubated at 37° C. and 5% CO2. 72 hours later 50 μl of CellTiter-Glo reagent was added to each well followed by a 2 minutes shaking and a 10-minute incubation to lyse the cells. The relative luminescent intensity units (RLU) of each well was measured using a Tecan M1000 microplate reader (Tecan Group Ltd.) with its green filter and 1 second integration time.
(§2) Cells used in Example 2 and other examples disclosed herein were cultured as follows: Adherent HeLa cells and patient derived glioblastoma cells were grown with 5% CO2 at 37° C. in F12:DMEM 50:50 medium (Invitrogen) containing 10% FBS and 1% penicillin/streptomycin. To obtain HeLa cells synchronized in mitosis, cycling cells were treated with 2 mM thymidine (Sigma-Aldrich) for eighteen hours, washed three times with PBS, and released into fresh media until they entered mitosis eight hours post-release. Patient-derived glioblastoma cells (HK-309) were collected and grown with approval from the UCLA Institutional Review Board. HK-309 was derived from a recurrent glioblastoma taken from a person. The cells were initially propagated as cancer stem cell-containing spheres in serum-free medium containing basic fibroblast growth factor and epidermal growth factor (Preprotech) as described previously by Visnyei et al., Mol Cancer Ther 2011, 10, (10), 1818-28.
For mitotic arrest IC50s, cells were treated with a twenty-point-2-fold-titration (190 pM to 10 μM) of each compound tested for 20 hours. For cell viability IC50s, cells were treated with a fourteen-point-2-fold-titration (12.2 nM to 100 μM). Mitotic arrest IC50 was determined by measuring the percent G2/M arrest using the Vybrant DyeCycle Green (Invitrogen) assay described above. Cell viability IC50 was determined using the CellTiter-Glo Assay (Promega), which measures total ATP levels. Plates were read with a Tecan M1000 micro-plate reader at 540 nm. The CDD software was used for generating IC50 and IC90 values.

[2] = system: patient-derived glioblastoma cells (HK-309); assay: CellTiter-Glo cell viability, patient-derived glioblastoma cells; assay type: cell-based; conditions: HK-309, 72 hours
Experimental: as §1, §2

tubulin = target: T1, tubulin (Sus scrofa, UniProt P02554); assay: In vitro tubulin polymerization assay (HTS-tubulin polymerization kit, Cytoskeleton); assay type: biochemical; conditions: 3 μM compound, fluorescence, 70 minutes at 37° C.
T1 construct: purchased Cytoskeleton Inc. BK011P
T1 sequence (P02554 whole entry): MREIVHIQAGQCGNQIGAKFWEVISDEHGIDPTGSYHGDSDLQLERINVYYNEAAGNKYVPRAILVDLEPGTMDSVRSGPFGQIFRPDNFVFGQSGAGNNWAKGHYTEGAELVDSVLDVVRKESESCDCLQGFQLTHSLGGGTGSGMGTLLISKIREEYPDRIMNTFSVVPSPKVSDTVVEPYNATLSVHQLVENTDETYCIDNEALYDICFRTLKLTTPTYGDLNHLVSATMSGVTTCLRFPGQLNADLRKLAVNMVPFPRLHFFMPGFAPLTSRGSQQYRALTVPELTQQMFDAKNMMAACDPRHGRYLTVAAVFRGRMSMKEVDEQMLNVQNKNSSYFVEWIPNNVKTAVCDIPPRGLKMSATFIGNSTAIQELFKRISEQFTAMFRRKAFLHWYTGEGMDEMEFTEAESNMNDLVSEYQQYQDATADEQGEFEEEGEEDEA
T1 sequence (P02550 whole entry partner): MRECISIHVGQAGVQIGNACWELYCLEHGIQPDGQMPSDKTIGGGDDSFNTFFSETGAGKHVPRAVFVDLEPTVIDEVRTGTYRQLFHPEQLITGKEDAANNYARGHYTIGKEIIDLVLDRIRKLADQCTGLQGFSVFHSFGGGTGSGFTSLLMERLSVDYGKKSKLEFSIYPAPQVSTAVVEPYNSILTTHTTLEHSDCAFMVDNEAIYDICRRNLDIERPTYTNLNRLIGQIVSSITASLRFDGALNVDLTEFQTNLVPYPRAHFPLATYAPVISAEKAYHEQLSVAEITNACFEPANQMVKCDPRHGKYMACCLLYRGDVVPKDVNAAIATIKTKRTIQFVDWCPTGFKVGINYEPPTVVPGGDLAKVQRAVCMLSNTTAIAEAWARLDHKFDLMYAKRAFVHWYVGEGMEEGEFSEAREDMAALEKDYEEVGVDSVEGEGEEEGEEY
Experimental: 1.5 ul of 10× strength compound, 20 μl of tubulin solution and Triton X-100 at a final concentration of 0.01% were added to each well in a 384 well plate. The reactions were assembled on ice to prevent tubulin pre-polymerization. For kinetic measurements, microtubule polymerization was monitored by reading the fluorescence at 420 nm (due to the incorporation of a fluorescent reporter into microtubules as polymerization occurs) every ten seconds using a Tecan M1000 microplate reader (FIG. 6B). […] Fluorescence increased as polymerization occurred, due to the incorporation of 4′,6-diamidino-2-phenylindole. Fluorescence was monitored every minute for 70 minutes at 37° C.
Tubulin polymerization reactions were carried out according to the manufacturer (Cytoskeleton, BK011P) in the presence of 3 μM colchicine, MI-181, taxol or DMSO. Polymerization was monitored with a Tecan M1000 micro-plate reader at 420 nm for 70 minutes at 37° C. The results are depicted in FIG. 11.

HeLa cells [3] = assay: Microtubule stability by immunofluorescence microscopy; assay type: cell-based; conditions: increasing concentrations, anti-α-tubulin staining
Experimental: Next, microtubule stability was analyzed in HeLa cells treated with increasing concentrations of each of these three compounds by fixing the cells with 4% paraformaldehyde, staining them with Hoechst 33342 (DNA dye) to visualize their DNA and anti-α-tubulin antibodies to visualize microtubule structures and then imaging them by immunofluorescence microscopy.

HeLa cells [4] = assay: Cell cycle analysis / cell division; assay type: cell-based; conditions: 20 hours
Experimental: For cell cycle analysis, HeLa cells were plated in 384 well plates (1500 cells/well) and treated with 10 μM drugs for 20 hours. Cells were then fixed and stained with 5 μM Vybrant DyeCycle Green (Invitrogen) for 1 hour at 37° C. and plates were scanned with an Acumen eX3 (TTP Labtech) fluorescence microplate cytometer using its 488 nm laser and a cell cycle histogram profile was generated for each drug treatment using the CDD (Collaborative Drug Discovery) software. […] Additionally, HeLa cells were treated with increasing concentrations of colchicine and compound 10 for 20 hours and the drug response dose curves were used to measure the mitotic arrest IC50 for each treatment.
Briefly, HeLa cells were treated with increasing concentrations of 10, 10a, and 10b for 20 hours and the drug response dose curves were used to measure the mitotic arrest IC50 for each treatment. Also, the percentage of cells undergoing normal cell division was quantified for DMSO, colchicine, 10b, or taxol-treated cells. Data represent the average±SD of 3 independent experiments, with 20 cells counted for each. Asterisks denotes p-value<0.0001.

Row | binding to tubulin in crystal structure (β-tubulin) | IC50 (HeLa cells [1]) [nM] | IC50 [2] [nM] | SMILES | inhibition of microtubule (tubulin) polymerization in vitro (tubulin) | microtubule stability in treated cells (HeLa cells [3]) | effect on cell division and cell death (HeLa cells [4])
1 | bound to β-tubulin |  |  | CCOc1ccc(C2=Nn3c(nnc3-c3ccccc3OC)SC2)cc1 [Compound C2, reference compound] |  |  | 
2 |  | 552 | 352 | O=c1[nH]c(/C=C/c2ccccc2)nc2sc3c(c12)CCCC3 [Compound 10, (E)-2-styryl-5,6,7,8-tetrahydrobenzo[4,5]thieno[2,3-d]pyrimidin-4(3H)-one] | potent inhibitors of microtubule polymerization similar to colchicine | destabilized in a drug dose-dependent manner | inhibit cell division and trigger apoptotic cell death
